# How the values were obtained:
# total glutathione levels = test: Total glutathione in striatum and liver of rats after CHX depletion; assay type: in vivo, Sprague-Dawley rats; details: 400 mg/kg i.p. 90 minutes after CHX 75 mg/kg; killed 1 hour after treatment
# Description: Male Sprague-Dawley rats aged nine weeks and weighing an average of 390 g, were used in the study. Animals were maintained on a twelve hour light-dark cycle with water and food ad libitum. Two animals were housed per cage with room temperature maintained at 22° C.
# All pharmacological agents were administered by intraperitoneal injection (i.p.) in a volume of 1 ml/kg, except where otherwise stated. All agents were prepared using saline as a diluent. Brain GSH depletion was performed using cyclohexene-1-one (CHX), administered at 75 mg/kg. Animals were returned to their cage for 90 minutes prior to administration of N-acetyl cysteine (NAC) or N-acetyl cysteine amide (NACA or “AD4”). Animals were killed by decapitation 1 hour after NACA or NAC treatment.
# Frontal cortex, striatum and liver samples were immediately excised on ice, weighed and sonicated in SSA buffer (5% sulfosalicylic acid in 100 mM disodium hydrogen orthophosphate, 100 mM sodium dihydrogen orthophosphate and 1 mM EDTA, pH 7.5, 5 mL/g wet tissue). The samples were subsequently centrifuged (22×10^3 g for 10 minutes, 4° C.) and the […] was taken and frozen at −80° C. until analysed.
# Total glutathione levels (μmol GSH/gram tissue) were determined in all samples. Samples were assayed according to Baker et al. (1990). Reduced glutathione standards ranging from 0 to 320 ρmol of GSH in 50 μL were prepared in a background buffer identical to the samples (SSA buffer) and then treated in parallel with samples. 50 μl of sample or standard was placed on a 96-well microtiter plate with 100 μL of assay reagent (final concentration in well; 0.15 mM DTNB, 0.2 mM NADPH, 1.0 U glutathione reductase/mL). Plates were assayed for a total of 2 minutes at 414 nm using a Multiskan MCC/340 MK II plate reader and Genesis V3.05 computer software. All chemicals were purchased from Sigma-Aldrich. Statistical evaluation of the data was conducted using analysis of variance (ANOVA).
# plasma glutathione = test: Parallel study of plasma glutathione at the trial dose of NAC; assay type: in vivo; details: NAC at this dose (2 g daily)
smiles,measurement,setting,value
"CC(=O)N[C@@H](CS)C(=O)O [NAC, N-acetyl cysteine]",Total glutathione levels in the brain striatum after CHX depletion,total glutathione levels,rescue
same,Total glutathione levels in the liver after CHX depletion,total glutathione levels,rescue
same,Plasma glutathione,plasma glutathione,significantly increased

# — patent US20100099762A1, “COMBINATION THERAPY” (THE MENTAL HEALTH RESEARCH INSTITUTE OF VICTORIA, priority 2006, published 2010)
